Test results reported in publication PMC5874719, “A π-Halogen Bond of Dibenzofuranones with the Gatekeeper Phe113 in Human Protein Kinase CK2 Leads to Potent Tight Binding Inhibitors” (Pharmaceuticals, 2018).

Tests used:
PARP1 in LNCaP cells = experiment: PARP1 cleavage, Western blot; format: cell-based, human
Method: Figure 6 Induction of apoptosis in prostate cancer cell line LNCaP and non-neoplastic retinal pigment epithelial cell line ARPE19. (A) ARPE19 or LNCaP cells were treated with DMSO as control (0 μM) or with 25 or 50 μM 4b, 4a or 5 for 24 or 48 h. Activity of caspases 3 and 7 was determined using the luminescent Caspase-Glo® 3/7 assay according to the technical bulletin of the manufacturer. Median relative light units (RLU) + standard deviation from at least three independent experiments are shown in the bar graph. (B) Cells were treated as described before. 75 μg cell extract was separated in a 10% SDS polyacrylamide gel and analyzed in a Western blot analysis with a rabbit polyclonal antibody against PARP1. + is a positive control for PARP cleavage.
In addition to the luminescence assay, Western blot analysis was performed to check PARP1-cleavage (Figure 6B). Therefore specific antibodies for the detection of the full-length PARP1 (113 kDa) and the larger cleavage fragment of PARP1 (89 kDa) were used. In ARPE19 cells no cleavage product of PARP1 was detectable.
Proteins were separated by SDS polyacrylamide gel electrophoresis and blotted onto a PVDF membrane. After blocking (1 h with PBS-Tween20 with 5% dry milk) the membrane was incubated with appropriate dilutions of primary antibodies in PBS-Tween20 with 1% dry milk for another hour at room temperature or at 4 °C overnight. Then the membrane was washed twice for 10 min with PBS-Tween20 with 1% dry milk. Incubation with the peroxidase-coupled secondary antibody (anti-rabbit 1:30,000, anti-mouse 1:10,000) followed for 1 h. The membrane was washed again twice for 10 min with PBS-Tween20. Signals were developed and visualized by the Lumilight system of Roche Diagnostics GmbH. For the detection of the apoptose marker protein PARP we used a polyclonal PARP antibody (Cell Signaling Technology, Frankfurt, Germany), a GAPDH specific antibody (Santa Cruz Biotechnologies, Dallas, TX, USA) was used for loading control. […]

CK2α’ = molecular target: T1, CK2α’ (Homo sapiens, UniProt P19784); experiment: kinase selectivity profile (Reaction Biology Corp.); format: biochemical; settings: 10 µM inhibitor, 10 µM ATP, relative to control without inhibitor; read-out: residual activity
T1 construct: purchased Reaction Biology Corp
Text: (§1) This demands further investigation.

CK2α = molecular target: T2, CK2α (Homo sapiens, UniProt P68400); experiment: as above; format: biochemical; settings: 10 µM inhibitor, 10 µM ATP, relative to control without inhibitor; read-out: residual activity
T2 construct: purchased Reaction Biology Corp
Text: as §1

[1] = molecular target: T3, surface displayed CK2α’ + CK2β (CK2α’ containing human CK2 holoenzyme) (Homo sapiens, UniProt P19784); experiment: whole-cell CK2 selectivity assay, holoenzyme surface displayed on E. coli; format: biochemical; settings: for IC50: CK2α’ + CK2β displayed on E. coli, 600 µM ATP, 100 µM substrate peptide; for factor of stronger inhibition of CK2α’ containing holoenzyme in comparison to CK2α containing holoenzyme: whole-cell assay, not statistically significant
T3 construct: surface-display (autodisplay) carrier protein; made in house; host or cells: Escherichia coli BL21 (DE3), enzyme left on the cell surface
Text: We recently reported a whole cell CK2 activity assay, which can be used for testing the selectivity of compounds towards CK2α and CK2α’ [47]. It is based on the surface display of the human CK2 subunits, either α or α’ together with β on E. coli, were they are able to form a functional tetrameric holoenzymes, either ααββ or α’α’ββ, depending on which α isoform has been expressed. This technique was used to investigate whether 4a or 5 have preference to one of the two catalytic isoforms of CK2.
For this purpose, their IC50 were determined following the protocol of the recently described whole-cell CK2 selectivity assay. In summary, 78 µL of a bacterial suspension of Escherichia coli BL21 (DE3) either surface displaying CK2α + CK2β or CK2α’ + CK2β in kinase buffer (50 mM Tris/HCl, pH 8.5, 100 mM NaCl, 10 mM MgCl2 and 1 mM DTT) were supplemented with 2 µL of the test compound dissolved in DMSO and incubated at 37 °C and 400 rpm for 10 min. CK2 reactions were started by the addition of 120 µL of assay buffer (25 mM Tris/HCl, pH 7.5, 150 mM NaCl, 5 mM MgCl2, 1 mM DTT, 167 µM substrate peptide […] and 1 mM ATP) leading to a total reaction volume of 200 µL with final concentrations of 100 µM for the substrate peptide and 600 µM for ATP. […] After the samples were incubated for 120 min at 37 °C and 400 rpm, the CK2 presenting bacteria were removed by centrifugation (3850× g, 5 min, 4 °C). The obtained supernatants were transferred to the wells of a 96 well-microplate and finally supplemented with EDTA to a concentration of 12.5 mM to definitely stop the enzymatic reactions. The samples were then subjected to a Beckman Coulter pa800 plus (Krefeld, Germany) CE system and analyzed for phosphorylation of the substrate peptide. Samples containing pure DMSO served as controls for 0% inhibition and samples additionally lacking ATP served as controls for 100% inhibition. […] IC50 values were calculated from the resulting dose-response curves.
CK2α’ + CK2β (right column).
Mean values ± standard errors of
the means (SEM) are shown. […]

T3 sequence (P19784 whole entry): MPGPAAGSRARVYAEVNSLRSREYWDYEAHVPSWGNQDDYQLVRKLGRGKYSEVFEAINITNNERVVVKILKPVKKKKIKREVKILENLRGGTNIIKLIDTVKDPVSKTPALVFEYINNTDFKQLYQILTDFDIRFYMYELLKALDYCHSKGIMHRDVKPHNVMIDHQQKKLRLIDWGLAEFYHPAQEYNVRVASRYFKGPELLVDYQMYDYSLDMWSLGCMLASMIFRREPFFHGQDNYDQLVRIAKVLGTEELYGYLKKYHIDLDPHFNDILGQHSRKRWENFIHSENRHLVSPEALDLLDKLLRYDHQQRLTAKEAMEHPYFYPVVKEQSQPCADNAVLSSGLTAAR
T3 sequence (P67870 whole entry partner): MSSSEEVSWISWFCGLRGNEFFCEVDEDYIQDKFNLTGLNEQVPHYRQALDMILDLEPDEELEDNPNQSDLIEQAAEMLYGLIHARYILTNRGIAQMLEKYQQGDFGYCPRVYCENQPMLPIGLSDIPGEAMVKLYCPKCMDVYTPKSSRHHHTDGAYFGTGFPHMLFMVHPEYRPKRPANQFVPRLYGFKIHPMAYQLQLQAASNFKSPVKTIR
T1 sequence (P19784 whole entry): as the sequence (P19784 whole entry) above
T2 sequence (P68400 whole entry): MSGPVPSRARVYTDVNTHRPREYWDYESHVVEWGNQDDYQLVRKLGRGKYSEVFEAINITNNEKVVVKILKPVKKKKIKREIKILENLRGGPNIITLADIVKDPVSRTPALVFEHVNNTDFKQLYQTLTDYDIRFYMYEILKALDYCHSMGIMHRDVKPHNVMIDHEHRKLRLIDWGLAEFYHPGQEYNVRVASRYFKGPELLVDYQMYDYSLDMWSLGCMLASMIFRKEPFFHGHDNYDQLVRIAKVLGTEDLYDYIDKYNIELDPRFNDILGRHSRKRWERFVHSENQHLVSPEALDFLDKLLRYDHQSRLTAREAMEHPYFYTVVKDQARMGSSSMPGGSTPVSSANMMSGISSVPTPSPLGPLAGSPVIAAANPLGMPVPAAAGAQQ

Compound	PARP1 cleavage (PARP1 in LNCaP cells; 25 or 50 µM, 24 or 48 h)	remaining activity at 10 µM (CK2α’)	remaining activity at 10 µM (CK2α)	IC50 [1]	factor of stronger inhibition of CK2α’ containing holoenzyme in comparison to CK2α containing holoenzyme [1]	PARP1 cleavage (PARP1 in LNCaP cells; 50 µM)
COc1ccc(N/C=C2\C(=O)CCc3c2oc2cc(Cl)c(O)c(Cl)c32)cc1 [4a, 7,9-dichloro-1,2-dihydro-8-hydroxy-4-[(4-methoxyphenylamino)methylene]dibenzo[b,d]furan-3(2H)-one]	did not result in cleavage of PARP1	< 1%	< 2%	0.043 µM	1.5	
COc1ccc(/N=C/c2c(O)ccc3c2oc2cc(Cl)c(O)c(Cl)c23)cc1 [compound 5, (E)-1,3-dichloro-6-[(4-methoxyphenylimino)methyl]dibenzo[b,d]furan-2,7-diol]		< 1%	< 2%	0.073 µM	1.5	cleavage of PARP1
Cc1ccc(NC=C2C(=O)CCc3c2oc2c(Cl)c(Cl)c(O)cc32)cc1 [4b, 6,7-dichloro-1,4-dihydro-8-hydroxy-4-[(4-methylphenylamino)methylene]dibenzo[b,d]furan-3(2H)-one]						cleavage of PARP1
